Like-named read-outs stand apart in the source and are kept apart here.
Experiment: Study .4: 4-week treatment of diabetic patients, once daily, pharmacokinetic parameters
Format: in vivo, human
Conditions: for AUCτ,ss,norm Max / AUCτ,ss,norm Median / AUCτ,ss,norm Min / AUCτ,ss,norm gMean: Study .4, steady state, dose-normalized
Protocol: 5. Pharmacokinetic Parameters
The pharmacokinetic parameters of pharmaceutical compositions and pharmaceutical dosage forms are assessed in healthy volunteer and patient populations. In the studies shown below, the participants fasted on the day of sampling, unless as otherwise stated (see for example study .3). The active substance in the studies below is the compound (I.9), preferably in the crystalline form (I.9X), and the dose of active ingredient is indicated in mg.
For the quantification of plasma concentrations of the active ingredient, 2.7 mL of blood was collected and transferred into an EDTA (ethylendiaminetetraacetic acid)-anticoagulant blood drawing tube. The EDTA-anticoagulated blood samples were centrifuged immediately after collection. Centrifugation lasted for about 10 minutes (at about 2,000×gf to 4,000×gf) at 4-8° C. or within 30 minutes while stored on ice. Concentrations of active substance in EDTA human plasma samples were quantitated using a HPLC/MS/MS method. The assay method comprised a solid phase supported liquid-liquid extraction of human plasma coupled with HPLC/MS/MS determination of the extracted samples. The HPLC/MS/MS assay was validated for the range of 1.11 to 1110 nM in human plasma.
Study .4: 4-week treatment of a diabetic patient population of N=78, once daily administration for 4 weeks. Patients were administered tablets as described in Example 10 (section Examples of formulations).
AUC0-inf:area under the concentration-time curve of the analyte in plasma over the time interval from 0 extrapolated to infinity.
Cmax: maximum concentration of the analyte in plasma.
Tmax: time from dosing to maximum concentration.
AUCT,SS:area under the concentration-time curve of the analyte in plasma over the time interval from 0 to 24 h at steady-state.
Cmax,ss:maximum concentration of the analyte in plasma at steady state over a uniform dosing interval.
tmax,ss:time from dosing to maximum concentration at steady state.

[1] = 10 mg once daily, steady state, Study .4, fasted
[2] = 10 mg single dose, Study .4, fasted
[3] = 25 mg once daily, steady state, Study .4, fasted
[4] = 25 mg single dose, Study .4, fasted

OC[C@H]1O[C@@H](c2ccc(Cl)c(Cc3ccc(O[C@H]4CCOC4)cc3)c2)[C@H](O)[C@@H](O)[C@@H]1O [Compound (I.9), 1-chloro-4-(β-D-glucopyranos-1-yl)-2-[4-((S)-tetrahydrofuran-3-yloxy)-benzyl]-benzene]
AUCτ,ss Max [1]: 2.6 µM·h
AUCτ,ss Min [1]: 1.35 µM·h
tmax,ss Max [1]: 4.00 h
tmax,ss Min [1]: 0.983 h
Cmax (10 mg once daily, steady state, Study .4, fasted, read-out: Cmax,ss Max): 367 nM
AUC0-inf Max [2]: 2.41 µM·h
AUC0-inf Min [2]: 1.39 µM·h
AUC0-inf,norm Max [2]: 241 nmol·h/L/mg
AUC0-inf,norm Median [2]: 173 nmol·h/L/mg
AUC0-inf,norm Min [2]: 139 nmol·h/L/mg
AUC0-inf,norm gMean [2]: 172 nmol·h/L/mg
tmax Max [2]: 2.50 h
tmax Min [2]: 1.00 h
Cmax (10 mg single dose, Study .4, fasted, read-out: Cmax Max): 796 nM
Cmax (10 mg single dose, Study .4, fasted, read-out: Cmax Min): 205 nM
AUCτ,ss Max [3]: 7.64 µM·h
AUCτ,ss Min [3]: 2.79 µM·h
tmax,ss Max [3]: 3.02 h
tmax,ss Min [3]: 0.750 h
AUC0-inf Max [4]: 7.17 µM·h
AUC0-inf Min [4]: 2.84 µM·h
AUC0-inf,norm Max [4]: 287 nmol·h/L/mg
AUC0-inf,norm Median [4]: 171 nmol·h/L/mg
AUC0-inf,norm Min [4]: 114 nmol·h/L/mg
AUC0-inf,norm gMean [4]: 170 nmol·h/L/mg
tmax Min [4]: 0.750 h
Cmax (25 mg single dose, Study .4, fasted, read-out: Cmax Max): 1030 nM
Cmax (25 mg single dose, Study .4, fasted, read-out: Cmax Min): 496 nM
AUCτ,ss,norm Max (dose 10 mg, plasma): 260 nmol·h/L/mg
AUCτ,ss,norm Median (dose 10 mg, plasma): 184 nmol·h/L/mg
AUCτ,ss,norm Min (dose 10 mg, plasma): 135 nmol·h/L/mg
AUCτ,ss,norm gMean (dose 10 mg, plasma): 185 nmol·h/L/mg
AUCτ,ss,norm Max (dose 25 mg, plasma): 306 nmol·h/L/mg
AUCτ,ss,norm Median (dose 25 mg, plasma): 179 nmol·h/L/mg
AUCτ,ss,norm Min (dose 25 mg, plasma): 112 nmol·h/L/mg
AUCτ,ss,norm gMean (dose 25 mg, plasma): 186 nmol·h/L/mg
AUC (human, plasma, oral, 10 mg, 10 mg once daily, steady state, Study .4, fasted, read-out: AUCτ,ss Mean): 1.87 µM·h
AUC (human, plasma, oral, 10 mg, 10 mg once daily, steady state, Study .4, fasted, read-out: AUCτ,ss Median): 1.84 µM·h
AUC (human, plasma, oral, 10 mg, 10 mg once daily, steady state, Study .4, fasted, read-out: AUCτ,ss gMean): 1.85 µM·h
Cmax (human, plasma, oral, 10 mg, 10 mg once daily, steady state, Study .4, fasted, read-out: Cmax,ss Mean): 259 nM
Cmax (human, plasma, oral, 10 mg, 10 mg once daily, steady state, Study .4, fasted, read-out: Cmax,ss Median): 251 nM
Cmax (human, plasma, oral, 10 mg, 10 mg once daily, steady state, Study .4, fasted, read-out: Cmax,ss gMean): 252 nM
Tmax (human, plasma, oral, 10 mg, 10 mg once daily, steady state, Study .4, fasted, read-out: tmax,ss Mean): 1.72 h
Tmax (human, plasma, oral, 10 mg, 10 mg once daily, steady state, Study .4, fasted, read-out: tmax,ss Median): 1.5 h
Tmax (human, plasma, oral, 10 mg, 10 mg once daily, steady state, Study .4, fasted, read-out: tmax,ss g Mean): 1.61 h
AUC(0-inf) (human, plasma, oral, 10 mg, 10 mg single dose, Study .4, fasted, read-out: AUC0-inf Mean): 1.74 µM·h
AUC(0-inf) (human, plasma, oral, 10 mg, 10 mg single dose, Study .4, fasted, read-out: AUC0-inf Median): 1.73 µM·h
AUC(0-inf) (human, plasma, oral, 10 mg, 10 mg single dose, Study .4, fasted, read-out: AUC0-inf gMean): 1.72 µM·h
Cmax (human, plasma, oral, 10 mg, 10 mg single dose, Study .4, fasted, read-out: Cmax Mean): 309 nM
Cmax (human, plasma, oral, 10 mg, 10 mg single dose, Study .4, fasted, read-out: Cmax Median): 271 nM
Cmax (human, plasma, oral, 10 mg, 10 mg single dose, Study .4, fasted, read-out: Cmax gMean): 291 nM
Tmax (human, plasma, oral, 10 mg, 10 mg single dose, Study .4, fasted, read-out: tmax Mean): 1.5 h
Tmax (human, plasma, oral, 10 mg, 10 mg single dose, Study .4, fasted, read-out: tmax Median): 1.5 h
Tmax (human, plasma, oral, 10 mg, 10 mg single dose, Study .4, fasted, read-out: tmax gMean): 1.44 h
AUC (human, plasma, oral, 25 mg, 25 mg once daily, steady state, Study .4, fasted, read-out: AUCτ,ss Mean): 4.74 µM·h
AUC (human, plasma, oral, 25 mg, 25 mg once daily, steady state, Study .4, fasted, read-out: AUCτ,ss Median): 4.48 µM·h
AUC (human, plasma, oral, 25 mg, 25 mg once daily, steady state, Study .4, fasted, read-out: AUCτ,ss gMean): 4.64 µM·h
Cmax (human, plasma, oral, 25 mg, 25 mg once daily, steady state, Study .4, fasted, read-out: Cmax,ss Mean): 687 nM
Cmax (human, plasma, oral, 25 mg, 25 mg once daily, steady state, Study .4, fasted, read-out: Cmax,ss Median): 671 nM
Cmax (human, plasma, oral, 25 mg, 25 mg once daily, steady state, Study .4, fasted, read-out: Cmax,ss gMean): 676 nM
Tmax (human, plasma, oral, 25 mg, 25 mg once daily, steady state, Study .4, fasted, read-out: tmax,ss Mean): 1.55 h
Tmax (human, plasma, oral, 25 mg, 25 mg once daily, steady state, Study .4, fasted, read-out: tmax,ss Median): 1.5 h
Tmax (human, plasma, oral, 25 mg, 25 mg once daily, steady state, Study .4, fasted, read-out: tmax,ss g Mean): 1.4 h
AUC(0-inf) (human, plasma, oral, 25 mg, 25 mg single dose, Study .4, fasted, read-out: AUC0-inf Mean): 4.34 µM·h
AUC(0-inf) (human, plasma, oral, 25 mg, 25 mg single dose, Study .4, fasted, read-out: AUC0-inf Median): 4.27 µM·h
AUC(0-inf) (human, plasma, oral, 25 mg, 25 mg single dose, Study .4, fasted, read-out: AUC0-inf gMean): 4.24 µM·h
Cmax (human, plasma, oral, 25 mg, 25 mg single dose, Study .4, fasted, read-out: Cmax Mean): 722 nM
Cmax (human, plasma, oral, 25 mg, 25 mg single dose, Study .4, fasted, read-out: Cmax Median): 697 nM
Cmax (human, plasma, oral, 25 mg, 25 mg single dose, Study .4, fasted, read-out: Cmax gMean): 709 nM
Tmax (human, plasma, oral, 25 mg, 25 mg single dose, Study .4, fasted, read-out: tmax Mean): 1.39 h
Tmax (human, plasma, oral, 25 mg, 25 mg single dose, Study .4, fasted, read-out: tmax Median): 1.5 h
Tmax (human, plasma, oral, 25 mg, 25 mg single dose, Study .4, fasted, read-out: tmax gMean): 1.33 h

From patent publication US20180289678A1, “PHARMACEUTICAL COMPOSITION, PHARMACEUTICAL DOSAGE FORM, PROCESS FOR THEIR PREPARATION, METHODS FOR TREATING AND USES THEREOF” (Boehringer Ingelheim International GmbH, priority 2009, published 2018)
